Here are results for 16 molecules from patent US8383683B2, “Pharmaceutical use of substituted amides” (High Point Pharmaceuticals, LLC, priority 2007, dated 2013).

The structures appear in SMILES notation.

Chain of 11βHSD1 (P28845 whole entry): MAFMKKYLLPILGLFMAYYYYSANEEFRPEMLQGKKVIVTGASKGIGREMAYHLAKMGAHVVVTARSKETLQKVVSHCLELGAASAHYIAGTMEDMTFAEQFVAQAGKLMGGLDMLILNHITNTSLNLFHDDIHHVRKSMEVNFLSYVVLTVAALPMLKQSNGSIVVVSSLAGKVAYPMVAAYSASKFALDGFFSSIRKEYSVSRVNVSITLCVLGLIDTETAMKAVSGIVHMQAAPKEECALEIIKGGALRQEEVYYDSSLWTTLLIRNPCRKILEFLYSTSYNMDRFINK

This assay deals with 11βHSD1 (Homo sapiens, UniProt P28845). Kind of assay: 11βHSD1 enzyme assay (SPA, 3H-cortisone to 3H-cortisol). More on the design: An extract of yeast transformed with h-11βHSD1 (Hutt et al., FEBS Lett., 441, 25 (1998)) was used as the source of enzyme; made in house. Type of assay: biochemical. To be noted: extract of yeast transformed with h-11βHSD1; 120 nM 3H-cortisone, 4 mM β-NADPH, 60 min at 30° C. As for the experimental part:
Pharmacological Methods 11βHSD1 Enzyme Assay Materials
^3H-cortisone and anti-rabbit Ig coated scintillation proximity assay (SPA) beads were purchased from Amersham Pharmacia Biotech, β-NADPH was from Sigma and rabbit anti-cortisol antibodies were from Fitzgerald. An extract of yeast transformed with h-11βHSD1 (Hutt et al., FEBS Lett., 441, 25 (1998)) was used as the source of enzyme. The test compounds were dissolved in DMSO (10 mM). All dilutions were performed in a buffer containing 50 mM TRIS-HCl (Sigma Chemical Co), 4 mM EDTA (Sigma Chemical Co), 0.1% BSA (Sigma Chemical Co), 0.01% Tween-20 (Sigma Chemical Co) and 0.005% bacitracin (Novo Nordisk NS), pH=7.4. Optiplate 96 wells plates were supplied by Packard. The amount of ^3H-cortisol bound to the SPA beads was measured on TopCount NXT, Packard.
h-11βHSD1, 120 nM ^3H-cortisone, 4 mM β-NADPH, antibody (1:200), serial dilutions of test compound and SPA particles (2 mg/well) were added to the wells. The reaction was initiated by mixing the different components and was allowed to proceed under shaking for 60 min at 30° C. The reaction was stopped be the addition of 10 fold excess of a stopping buffer containing 500 μM carbenoxolone and 1 μM cortisone. Data was analysed using GraphPad Prism software.
Molecule `O=C(CCCOc1ccc(Cl)cc1Cl)NC1C2CC3CC1CC(CO)(C3)C2` (stereo not shown) [Example 1-55, 4-(2,4-Dichloro-phenoxy)-N-(5-hydroxy-methyl-adamantan-2-yl)-butyramide] gave an IC50 of 2 nM.

For `CC(C)N(C(=O)CCCOc1ccc(Cl)cc1Cl)C1C2CC3CC1CC(O)(C3)C2` (stereo not shown) [Example 1-56, 4-(2,4-Dichloro-phenoxy)-N-(5-hydroxy-adamantan-2-yl)-N-isopropyl-butyramide], the IC50 amounted to 322 nM. In the case of `CN(C(=O)CCCOc1ccc(Cl)cc1Cl)[C@H]1CCCC[C@@H]1O` [Example 1-57, 4-(2,4-Dichloro-phenoxy)-N-((1S,2S)-2-hydroxy-cyclohexyl)-N-methyl-butyramide] it was 628 nM. Next, `CN(C(=O)CCCOc1ccc(Cl)cc1Cl)C1CCCC(C(=O)O)C1` (stereo not shown) [Example 1-58, 3-{[4-(2,4-Dichloro-phenoxy)-butyryl]-methyl-amino}-cyclo-hexanecarboxylic acid]: 55 nM.

With `CN(C(=O)CCCOc1ccc(Cl)cc1Cl)C1CCCC(CO)C1` (stereo not shown) [Example 1-59, 4-(2,4-Dichloro-phenoxy)-N-(3-hydroxy-methyl-cyclo-hexyl)-N-methyl-butyramide], the IC50 came out at 3 nM. Next, `CN(C(=O)CCCOc1ccc(Cl)cc1Cl)C1CCC(CO)CC1` (stereo not shown) [Example 1-60, 4-(2,4-Dichloro-phenoxy)-N-(4-hydroxy-methyl-cyclohexyl)-N-methyl-butyramide]: 1 nM. Next, `CN(C(=O)CCCOc1ccc(Cl)cc1Cl)C1CCCC(O)C1` (stereo not shown) [Example 1-61, 4-(2,4-Dichloro-phenoxy)-N-(3-hydroxy-cyclohexyl)-N-methyl-butyramide]: 56 nM; `CN(C(=O)CCCOc1ccc(Cl)cc1Cl)[C@H]1CCCC[C@@H]1CO` [Example 1-62, 4-(2,4-Dichloro-phenoxy)-N-((S)-2-hydroxymethyl-cyclo-hexyl)-N-methyl-butyramide]: 123 nM. For the molecule `CN(C(=O)CCCOc1ccc(Cl)cc1Cl)C1CC2CC1CC2O` (stereo not shown) [Example 1-64, 4-(2,4-Dichloro-phenoxy)-N-(5-hydroxy-bicyclo[2.2.1]hept-2-yl)-N-methyl-butyramide], the IC50 amounted to 2 nM.

The molecule `CN(C(=O)CCCOc1ccc(Cl)cc1Cl)C1C2CC3CC1CC(CO)(C3)C2` (stereo not shown) [Example 1-65, 4-(2,4-Dichloro-phenoxy)-N-(5-hydroxy-methyl-adamantan-2-yl)-N-methyl-butyramide] had an IC50 of 4 nM. This IC50 lies about 2-fold higher than the previous one.

In the case of `COC(=O)C12CC3CC(CN(C(=O)CCCOc4ccc(Cl)cc4Cl)C(C3)C1)C2` (stereo not shown) [Example 1-66, 4-[4-(2,4-Dichloro-phenoxy)-butyryl]-4-aza-tricyclo[4.3.1.1{3,8}]-undecane-1-carboxylic acid methyl ester], 3 nM corresponded to half-maximal inhibition (IC50). For `O=C(CCCOc1ccc(Cl)cc1Cl)N1CC2CC3CC1CC(C(=O)O)(C3)C2` (stereo not shown) [Example 1-67, 4-[4-(2,4-Dichloro-phenoxy)-butyryl]-4-aza-tricyclo[4.3.1.1{3,8}]-undecane-1-carboxylic acid], inhibition was half-maximal at 25 nM (IC50). Next, `COC(=O)C12CC3CC(C1)C(NC(=O)CCCOc1ccc(Cl)cc1Cl)C(C3)C2` (stereo not shown) [Example 1-68, 4-[4-(2,4-Dichloro-phenoxy)-butyrylamino]-adamantane-1-carboxylic acid methyl ester]: 17 nM; `CN(C(=O)CCCOc1ccc(Cl)cc1Cl)C1CCC(S(N)(=O)=O)CC1` (stereo not shown) [Example 1-69, 4-(2,4-Dichloro-phenoxy)-N-methyl-N-(4-sulfamoyl-cyclohexyl)-butyramide]: 2 nM. Next, `CN(C(=O)CCCOc1ccc(Cl)cc1Cl)C1CCC(S(=O)(=O)N(C)C)CC1` (stereo not shown) [Example 1-70, 4-(2,4-Dichloro-phenoxy)-N-(4-dimethyl-sulfamoyl-cyclohexyl)-N-methyl-butyramide]: 479 nM.

On to `CN(C(=O)CCCOc1ccc(Cl)cc1Cl)C1CCC(S(=O)(=O)N(C)C)CC1` (stereo not shown) [Example 1-71, 4-(2,4-Dichloro-phenoxy)-N-(4-dimethyl-sulfamoyl-cyclohexyl)-N-methyl-butyramide], for which 21 nM corresponded to half-maximal inhibition (IC50).

Usually IC50 stands for the concentration that gives 50% inhibition. The low end stands for greater potency in that assay, the high end for weaker potency in that assay.
